Reference: patent US20100056508A1, “AMINE DERIVATIVES AND THEIR USE IN BETA-2-ADRENORECEPTOR MEDIATED DISEASES” (ASTRAZENECA AB, priority 2006, published 2010)
Counter-ions that a name gives are not always drawn.

Target: T1, recombinant human α1D receptor (Homo sapiens, UniProt P25100)
T1 construct: expressed in transfected cells; host or cells: human embryonic kidney 293 cells (HEK93 [sic]), membranes
T1 sequence (P25100 1-572): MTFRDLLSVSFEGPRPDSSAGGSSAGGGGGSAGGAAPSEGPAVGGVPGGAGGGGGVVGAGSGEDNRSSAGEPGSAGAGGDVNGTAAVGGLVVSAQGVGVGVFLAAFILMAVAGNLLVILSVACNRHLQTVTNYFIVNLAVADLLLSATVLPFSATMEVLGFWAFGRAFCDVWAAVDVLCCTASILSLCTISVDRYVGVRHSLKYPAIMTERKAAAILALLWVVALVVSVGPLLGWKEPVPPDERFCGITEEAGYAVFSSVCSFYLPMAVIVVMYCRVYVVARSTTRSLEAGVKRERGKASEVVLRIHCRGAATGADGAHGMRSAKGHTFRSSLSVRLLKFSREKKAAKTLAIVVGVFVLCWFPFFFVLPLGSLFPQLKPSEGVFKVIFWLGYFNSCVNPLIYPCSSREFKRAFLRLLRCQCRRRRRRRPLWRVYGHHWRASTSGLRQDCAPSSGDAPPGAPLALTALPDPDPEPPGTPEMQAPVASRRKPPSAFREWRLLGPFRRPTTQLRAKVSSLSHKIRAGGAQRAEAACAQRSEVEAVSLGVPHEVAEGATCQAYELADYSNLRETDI
Assay: Adrenergic α1D selectivity assay, [3H]-prazosin binding to membranes
Conditions: inhibition of [3H]-prazosin binding, HEK cell membranes, read-out: α1 bind pIC50 (converted)
Method: Membranes were prepared from human embryonic kidney 293 ([…]) cells expressing recombinant human α1D receptor. These were diluted in Assay Buffer (50 mM HEPES, 1 mM EDTA, pH 7.4) to provide a final concentration of membranes that gave a clear window between maximum and minimum specific binding.
Assays were performed in U-bottomed 96-well polypropylene plates. 10 μL [^3H]-prazosin (0.3 nM final concentration) and […] of test compound (10× final concentration) were added to each test well. For each assay plate 8 replicates were obtained for [^3H]-prazosin binding in the presence of 10 μL vehicle (10% (v/v) DMSO in Assay Buffer; defining maximum binding) or 10 μL BMY7378 (10 μM final concentration; defining non-specific binding (NSB)). Membranes were then added to achieve a final volume of 100 μL. The plates were incubated for 2 hours at room temperature and then filtered onto PEI coated GF/B filter plates, pre-soaked for 1 hour in Assay Buffer, using a 96-well plate Tomtec cell harvester. Five washes with 250 μL wash buffer (50 mM HEPES, 1 mM EDTA, pH 7.4) were performed at 4° C. to remove unbound radioactivity. The plates were dried then sealed from underneath using Packard plate sealers and MicroScint-O (50 μL) was added to each well. The plates were sealed (TopSeal A) and filter-bound radioactivity was measured with a scintillation counter (TopCount, Packard BioScience) using a 3-minute counting protocol.
Total specific binding (B0) was determined by subtracting the mean NSB from the mean maximum binding. NSB values were also subtracted from values from all other wells. […] Data was fitted to a four parameter logistic equation to determine the compound potency, which was expressed as pIC50 (negative log molar concentration inducing 50% inhibition of [^3H]-prazosin binding).

| Compound | IC50 [µM] |
| --- | --- |
| C[C@H](C1CCCCC1)N(CCNCCc1ccc(O)c2c1OCC(=O)N2)C(=O)CCNCCc1ccccc1 [Example 61, (R)—N-(1-Cyclohexylethyl)-N-(2-(2-(5-hydroxy-3-oxo-3,4-dihydro-2H-benzo[b][1,4]oxazin-8-yl)ethylamino)ethyl)-3-(phenethylamino)propanamide bis(trifluoroacetate)] | 0.02 |
| O=C1COc2c(CCNCCN(C(=O)CCNCCc3ccc(C(=O)O)cc3)C3CCCCC3)ccc(O)c2N1 [Example 43, 4-(2-(3-(Cyclohexyl(2-(2-(5-hydroxy-3-oxo-3,4-dihydro-2H-benzo[b][1,4]oxazin-8-yl)ethylamino)ethyl)amino)-3-oxopropylamino)ethyl)benzoic acid bis(trifluoroacetate)] | > 10 |
| CCCC[C@@H](C)N(CCNCCc1ccc(O)c2c1OCC(=O)N2)C(=O)CCNCCc1ccc(Cl)cc1 [Example 45, (R)-3-(4-Chlorophenethylamino)-N-(hexan-2-yl)-N-(2-(2-(5-hydroxy-3-oxo-3,4-dihydro-2H-benzo[b][1,4]oxazin-8-yl)ethylamino)ethyl)propanamide bis(trifluoroacetate)] | 0.251 |
| O=C1COc2c(CCNCCN(C(=O)CCOCCc3ccc(F)cc3)C3CCCCC3)ccc(O)c2N1 [Example 75, N-Cyclohexyl-3-(4-fluorophenethoxy)-N-(2-(2-(5-hydroxy-3-oxo-3,4-dihydro-2H-benzo[b][1,4]oxazin-8-yl)ethylamino)ethyl)propanamide trifluoroacetate] | 0.631 |
| O=C1COc2c(CCNCCN(C(=O)CCNCCc3ccc(Cl)c(Cl)c3)C3CCCCCC3)ccc(O)c2N1 [Example 26, N-Cycloheptyl-3-(3,4-dichlorophenethylamino)-N-(2-(2-(5-hydroxy-3-oxo-3,4-dihydro-2H-benzo[b][1,4]oxazin-8-yl)ethylamino)ethyl)propanamide bis(trifluoroacetate)] | 0.0794 |
| CCCC[C@@H](C)N(CCNCCc1ccc(O)c2c1OCC(=O)N2)C(=O)CCNCCc1ccccc1 [Example 25, (R)—N-(Hexan-2-yl)-N-(2-(2-(5-hydroxy-3-oxo-3,4-dihydro-2H-benzo[b][1,4]oxazin-8-yl)ethylamino)ethyl)-3-(phenethylamino)propanamide bis(trifluoroacetate)] | 0.0631 |
| CCCC[C@@H](C)N(CCNCCc1ccc(O)c2c1OCC(=O)N2)C(=O)CCNCCc1cc(F)cc(Cl)c1 [Example 50, (R)-3-(3-Chloro-5-fluorophenethylamino)-N-(hexan-2-yl)-N-(2-(2-(5-hydroxy-3-oxo-3,4-dihydro-2H-benzo[b][1,4]oxazin-8-yl)ethylamino)ethyl)propanamide bis(trifluoroacetate)] | 0.2 |
| O=C1COc2c(CCNCCN(C(=O)CCNCCc3cc(F)cc(Cl)c3)C3CCCCC3)ccc(O)c2N1 [Example 41, 3-(3-Chloro-5-fluorophenethylamino)-N-cyclohexyl-N-(2-(2-(5-hydroxy-3-oxo-3,4-dihydro-2H-benzo[b][1,4]oxazin-8-yl)ethylamino)ethyl)propanamide (trifluoroacetate)] | 0.251 |
| O=C(CCNCCc1cccc(F)c1F)N(CCNCCc1ccc(O)c2[nH]c(=O)ccc12)C1CCCCC1 [Example 18, N-Cyclohexyl-3-(3-difluorophenethylamino)-N-(2-(2-(8-hydroxy-2-oxo-1,2-dihydroquinolin-5-yl)ethylamino)ethyl)propanamide bis(trifluoroacetate)] | 0.398 |
| O=C(CCNCCc1cccc(Cl)c1)N(CCNCCc1ccc(O)c2[nH]c(=O)ccc12)C1CCCCCC1 [Example 3, 3-(3-Chlorophenethylamino)-N-cycloheptyl-N-(2-(2-(8-hydroxy-2-oxo-1,2-dihydroquinolin-5-yl)ethylamino)ethyl)propanamide bis(trifluoroacetate)] | 0.0794 |
| O=C(CCNCCc1ccccc1)N(CCNCCc1ccc(O)c(O)c1)C1CCCCC1 [Example 22, N-Cyclohexyl-N-(2-(3,4-dihydroxyphenethylamino)ethyl)-3-(phenethylamino)propanamide bis(trifluoroacetate)] | 0.2 |
| O=C1COc2c(CCNCCN(C(=O)CCNCCc3cccc(Cl)c3F)C3CCCCC3)ccc(O)c2N1 [Example 39, 3-(3-Chloro-2-fluorophenethylamino)-N-cyclohexyl-N-(2-(2-(5-hydroxy-3-oxo-3,4-dihydro-2H-benzo[b][1,4]oxazin-8-yl)ethylamino)ethyl)propanamide bis(trifluoroacetate)] | 0.501 |
| CCCC[C@@H](C)N(CCNCCc1ccc(O)c2c1OCC(=O)N2)C(=O)CCNCCc1ccc(Cl)c(Cl)c1 [Example 55, (R)-3-(3,4-Dichlorophenethylamino)-N-(hexan-2-yl)-N-(2-(2-(5-hydroxy-3-oxo-3,4-dihydro-2H-benzo[b][1,4]oxazin-8-yl)ethylamino)ethyl)propanamide bis(trifluoroacetate)] | 0.251 |
| O=C1COc2c(CCNCCN(C(=O)CCOCCc3cccc(Cl)c3)C3CCCCC3)ccc(O)c2N1 [Example 77, 3-(3-Chlorophenethoxy)-N-cyclohexyl-N-(2-(2-(5-hydroxy-3-oxo-3,4-dihydro-2H-benzo[b][1,4]oxazin-8-yl)ethylamino)ethyl)propanamide trifluoroacetate] | 0.794 |
| CCCC[C@@H](C)N(CCNCCc1ccc(O)c2c1OCC(=O)N2)C(=O)CCNCCc1ccc(F)c(C)c1 [Example 47, (R)-3-(4-Fluoro-3-methylphenethylamino)-N-(hexan-2-yl)-N-(2-(2-(5-hydroxy-3-oxo-3,4-dihydro-2H-benzo[b][1,4]oxazin-8-yl)ethylamino)ethyl)propanamide bis(trifluoroacetate)] | 0.0794 |
| O=C1COc2c(CCNCCN(C(=O)CCOCCc3ccccc3F)C3CCCCC3)ccc(O)c2N1 [Example 76, N-Cyclohexyl-3-(2-fluorophenethoxy)-N-(2-(2-(5-hydroxy-3-oxo-3,4-dihydro-2H-benzo[b][1,4]oxazin-8-yl)ethylamino)ethyl)propanamide trifluoroacetate] | 1 |
| CCCC[C@@H](C)N(CCNCCc1ccc(O)c2c1OCC(=O)N2)C(=O)CCNCCc1cc(F)cc(F)c1 [Example 51, (R)-3-(3,5-Difluorophenethylamino)-N-(hexan-2-yl)-N-(2-(2-(5-hydroxy-3-oxo-3,4-dihydro-2H-benzo[b][1,4]oxazin-8-yl)ethylamino)ethyl)propanamide bis(trifluoroacetate)] | 0.316 |
| O=C1COc2c(CCNCCN(C(=O)CCNCCc3ccc(F)c(Cl)c3)C3CCCCC3)ccc(O)c2N1 [Example 37, 3-(3-Chloro-4-fluorophenethylamino)-N-cyclohexyl-N-(2-(2-(5-hydroxy-3-oxo-3,4-dihydro-2H-benzo[b][1,4]oxazin-8-yl)ethylamino)ethyl)propanamide bis(trifluoroacetate)] | 0.158 |
| O=C1COc2c(CCNCCN(C(=O)CCNCCc3ccc(Cl)cc3)C3CCCCC3)ccc(O)c2N1 [Example 32, 3-(4-Chlorophenethylamino)-N-cyclohexyl-N-(2-(2-(5-hydroxy-3-oxo-3,4-dihydro-2H-benzo[b][1,4]oxazin-8-yl)ethylamino)ethyl)propanamide bis(trifluoroacetate)] | 0.251 |
| O=CNc1cc(CCNCCN(C(=O)CCNCCc2ccccc2)C2CCCCC2)ccc1O [Example 21, N-Cyclohexyl-N-(2-(3-formamido-4-hydroxyphenethylamino)ethyl)-3-(phenethylamino)propanamide] | 0.0794 |
| O=C1COc2c(CCNCCN(C(=O)CCNCCc3ccccc3)C3CCCCC3)ccc(O)c2N1 [Example 23, N-Cyclohexyl-N-(2-(2-(5-hydroxy-3-oxo-3,4-dihydro-2H-benzo[b][1,4]oxazin-8-yl)ethylamino)ethyl)-3-(phenethylamino)propanamide bis(trifluoroacetate)] | 0.126 |
| O=C1COc2c(CCNCCN(C(=O)CCNCCc3ccc(Cl)cc3Cl)C3CCCCC3)ccc(O)c2N1 [Example 31, N-Cyclohexyl-3-(2,4-dichlorophenethylamino)-N-(2-(2-(5-hydroxy-3-oxo-3,4-dihydro-2H-benzo[b][1,4]oxazin-8-yl)ethylamino)ethyl)propanamide bis(trifluoroacetate)] | 0.158 |
